Results as given in patent publication US9765039B2, “Biaryl derivatives as bromodomain inhibitors” (Zenith Epigenetics Ltd., priority 2012, dated 2017).

Legend:
Brd4 bromodomain 1 = molecular target: T1, Brd4 bromodomain 1 (Homo sapiens, UniProt O60885); assay: Inhibition of tetra-acetylated histone H4 binding to BET bromodomains (TR-FRET); design: key: Active: Compounds with an IC50 value less than 30 μM were deemed to be active.; Not Active: Compounds with an IC50 value less than 30 μM were deemed to be active; settings: first bromodomain of Brd4, tetra-acetylated histone H4 peptide
T1 construct: made in house; host or cells: E. coli BL21(DE3)
Experimental: Proteins were cloned and overexpressed with a N-terminal 6×His tag, then purified by nickel affinity followed by size exclusion chromatography. Briefly, E. coli BL21(DE3) cells were transformed with a recombinant expression vector encoding N-terminally Nickel affinity tagged bromodomains from Brd2, Brd3, Brd4. Cell cultures were incubated at 37° C. with shaking to the appropriate density and induced overnight with IPTG. The supernatant of lysed cells was loaded onto Ni-IDA column for purification. Eluted protein was pooled, concentrated and further purified by size exclusion chromatography. Fractions representing monomeric protein were pooled, concentrated, aliquoted, and frozen at −80° C. for use in subsequent experiments.
Binding of tetra-acetylated histone H4 and BET bromodomains was confirmed by a Time Resolved Fluorescence Resonance Energy Transfer (TR-FRET) method. N-terminally His-tagged bromodomains (200 nM) and biotinylated tetra-acetylated histone H4 peptide (25-50 nM, Millipore) were incubated in the presence of Europium Cryptate-labeled streptavidin (Cisbio Cat. #610SAKLB) and XL665-labeled monoclonal anti-His antibody (Cisbio Cat. #61HISXLB) in a white 96 well microtiter plate (Greiner). For inhibition assays, serially diluted test compound was added to these reactions in a 0.2% final concentration of DMSO. Final buffer concentrations were 30 mM HEPES pH 7.4, 30 mM NaCl, 0.3 mM CHAPS, 20 mM phosphate pH 7.0, 320 mM KF, 0.08% BSA). After 2 hours incubation at room temperature, the fluorescence by FRET was measured at 665 and 620 nm by a SynergyH4 plate reader (Biotek). Illustrative results with the first bromodomain of Brd4 are shown below (Table 1). The binding inhibitory activity was shown by a decrease in 665 nm fluorescence relative to 620 nm. IC50 values were determined from a dose response curve.

Human AML MV-4-11 cells = assay: Inhibition of cell proliferation in cancer cell lines (CellTiter Aqueous One); type: cell-based; design: key: Active: Compounds with an IC50 value less than 30 μM were deemed to be active.; Not Active: Compounds with an IC50 value less than 30 μM were deemed to be active; settings: 72 hours
Experimental: MV4-11 cells: 96-well plates were seeded with 5×10^4 cells per well of exponentially growing human AML MV-4-11 (CRL-9591) cells and immediately treated with two-fold dilutions of test compounds, ranging from 30 μM to 0.2 μM. Triplicate wells were used for each concentration, as well as a media only and three DMSO control wells. The cells and compounds were incubated at 37° C., 5% CO2 for 72 hours before adding 20 μL of the CellTiter Aqueous One Solution (Promega) to each well and incubating at 37° C., 5% CO2 for an additional 3-4 hours. The absorbance was taken at 490 nm in a spectrophotometer and the percentage of proliferation relative to DMSO-treated cells was calculated after correction from the blank well. IC50 were calculated using the GraphPad Prism software.

hIL-6 mRNA = assay: Inhibition of hIL-6 mRNA transcription in LPS-stimulated U937 macrophages; type: cell-based, human; design: key: Active: Compounds with an IC50 value less than 30 μM are deemed to be active; settings: U937 differentiated into macrophages, 1 h pretreatment, lipopolysaccharide 3 h
Experimental: In this example, hIL-6 mRNA in tissue culture cells was quantitated to measure the transcriptional inhibition of hIL-6 when treated with a compound of the present disclosure.
A human leukemic monocyte lymphoma cell line (U937) was plated (3.2×10^4 cells per well) in a 96-well plate in 100 μL RPMI-1640 containing 10% FBS and penicillin/streptomycin, and differentiated into macrophages for 3 days in 60 ng/mL PMA ([…]) at 37° C. in 5% CO2 prior to the addition of the compound of interest. The cells were pretreated for 1 h with the test compound prior to stimulation with […] lipopolysaccharide from Escherichia coli. The cells were incubated at 37° C. for 3 h before the cells were harvested. At time of harvest, the spent media was removed from the cells and the cells were rinsed in 200 μL PBS. Cell lysis solution (70 μL) was added the cells in each well and incubated for 5-10 min at room temperature, to allow for complete cell lysis and detachment. mRNA was then prepared using the “mRNA Catcher PLUS plate” (Invitrogen), according to the protocol supplied. After the last wash, as much wash buffer as possible was aspirated without allowing the wells to dry. Elution buffer (E3, 70 μL) was then added to each well. mRNA was then eluted by incubating the mRNA Catcher PLUS plate with Elution Buffer for 5 min at 68° C. and then immediately placing the plate on ice.
The eluted mRNA isolated was then used in a one-step quantitative real-time PCR reaction, using components of the Ultra Sense Kit together with Applied Biosystems primer-probe mixes. Real-time PCR data was analyzed, normalizing the Ct values for hIL-6 to an internal control, prior to determining the fold induction of each unknown sample, relative to the control.

c-myc = assay: Inhibition of c-myc expression in cancer cell lines (mRNA, real-time PCR); type: cell-based; design: key: Active: Compounds with an IC50 value less than 30 μM were deemed to be active; settings: Human AML MV4-11 cells, 3 hours
Experimental: MV4-11 cells (2.5×10^4 cells) were plated in 96 well U-bottom plates with test compound or DMSO (0.1%), and incubated for 3 hours at 37° C. Cells were then harvested by centrifugation, lysed, and mRNA was isolated using the mRNA catcher plus kit (Invitrogen). Reverse transcription of the mRNA and duplex amplification of the c-myc and cyclophilin cDNAs was performed using the RNA Ultrasense kit (Invitrogen) and a ViiA7 real-time PCR machine (Applied Biosystems). IC50 values were determined from a dose response curve.

hApoA-1 mRNA = assay: Up-regulation of hApoA-1 mRNA transcription in Huh7 cells; type: cell-based, human; design: key: Active: Compounds with an EC170 value less than 30 μM are deemed to be active.; Not Active: Compounds with an EC170 value less than 30 μM are deemed to be active; settings: 48 hrs treatment, ApoA-I mRNA
Experimental: In this example, ApoA-I mRNA in tissue culture cells was quantitated to measure the transcriptional up-regulation of ApoA-I when treated with a compound of the present disclosure.
Huh7 cells ([…] per well) were plated in a 96-well plate using 100 μL DMEM per well, (Gibco DMEM supplemented with penicillin/streptomycin and 10% FBS), 24 h before the addition of the compound of interest. After 48 hrs treatment, the spent media was removed from the Huh-7 cells and placed on ice (for immediate use) or at −80° C. (for future use) with the “LDH cytotoxicity assay Kit II” from Abcam. The cells remaining in the plate were rinsed with 100 μL PBS.
Then 85 μL of cell lysis solution was added to each well and incubated for 5-10 minutes at room temperature, to allow for complete cell lysis and detachment. mRNA was then prepared using the “mRNA Catcher PLUS plate” from Life Technologies, according to the protocol supplied. After the last wash, as much wash buffer as possible was aspirated without allowing the wells to dry. Elution Buffer (E3, 80 μL) was then added to each well. mRNA was then eluted by incubating the mRNA Catcher PLUS plate with Elution Buffer for 5 minutes at 68° C., and then 1 minute at 4° C. Catcher plates with mRNA eluted were kept on ice for use or stored at −80° C.
The eluted mRNA isolated was then used in a one-step real-time PCR reaction, using components of the Ultra Sense Kit together with Life Technologies primer-probe mixes. Real-time PCR data was analyzed, using the Ct values, to determine the fold induction of each unknown sample, relative to the control (that is, relative to the control for each independent DMSO concentration).
Compounds with an EC170 value less than 30 μM are deemed to be active.

FRET activity (IC50 < 30 μM) (Brd4 bromodomain 1) | cell proliferation activity (IC50 < 30 μM) (Human AML MV-4-11 cells) | IL-6 activity (IC50 < 30 μM) (hIL-6 mRNA) | c-myc activity (IC50 < 30 μM) (c-myc) | melting point | Structure (SMILES) | ApoA-1 Activity (EC170 < 30 μM) (hApoA-1 mRNA)
Active | Not Active | Active | Not Active |  | COc1cc(OC)c2c(=O)[nH]c(-c3ccc(OCCO)c(-c4ccc(C(=O)N(C)C)cc4C)n3)nc2c1 [Example 3, 4-(6-(5,7-Dimethoxy-4-oxo-3,4-dihydroquinazolin-2-yl)-3-(2-hydroxyethoxy)pyridin-2-yl)-N,N,3-trimethylbenzamide] | Active
Active | Not Active | Active | Not Active | 289 to 290 °C | COc1cc(OC)c2c(=O)[nH]c(-c3cccc(-c4ccc([S+](C)[O-])s4)c3)nc2c1 (centres unmarked) [Example 51, 5,7-Dimethoxy-2-(3-(5-(methylsulfinyl)thiophen-2-yl)phenyl)quinazolin-4(3H)-one] | 
Active | Not Active | Active | Not Active | 316 °C (dec.) | COc1cc(OC)c2c(=O)[nH]c(-c3cc(-c4ccc([S+](C)[O-])cc4)c4[nH]ccc4c3)nc2c1 (centres unmarked) [Example 52, 5,7-Dimethoxy-2-(7-(4-(methylsulfinyl)phenyl)-1H-indol-5-yl)quinazolin-4(3H)-one] | 
Active | Not Active | Active | Not Active | 248 to 251 °C | COc1cc(OC)c2c(=O)[nH]c(-c3ccc(OC)c(-c4ccc(C(=O)N(C)C)cc4C)n3)nc2c1 [Example 54, 4-(6-(5,7-Dimethoxy-4-oxo-3,4-dihydroquinazolin-2-yl)-3-methoxypyridin-2-yl)-N,N,3-trimethylbenzamide] | 
Not Active | Not Active | Active | Not Active | 271 to 272 °C | COc1cc(OC)c2c(=O)[nH]c(-c3ccc(OC)c(-c4ccc(C(=O)N(C)C)cc4Cl)n3)nc2c1 [Example 56, 3-Chloro-4-(6-(5,7-dimethoxy-4-oxo-3,4-dihydroquinazolin-2-yl)-3-methoxypyridin-2-yl)-N,N-dimethylbenzamide] | 
Active | Not Active | Active | Not Active | 308 to 310 °C | COc1ccc(-c2nc3cccc(OC)c3c(=O)[nH]2)nc1-c1ccc([S+](C)[O-])cc1 (centres unmarked) [Example 57, 5-Methoxy-2-(5-methoxy-6-(4-(methylsulfinyl)phenyl)pyridin-2-yl)quinazolin-4(3H)-one] | 
Active | Not Active | Active | Not Active | 279 to 281 °C | COc1cc(OC)c2c(=O)[nH]c(-c3ccc(OC)c(-c4ccc(S(C)(=O)=O)cc4)n3)nc2c1 [Example 58, 5,7-Dimethoxy-2-(5-methoxy-6-(4-(methylsulfonyl)phenyl)pyridin-2-yl)quinazolin-4(3H)-one] | 
Active | Not Active | Not Active | Not Active | 266 to 267 °C | COc1ccc2c(=O)[nH]c(-c3ccc(OCCO)c(-c4ccc([S+](C)[O-])cc4)n3)nc2c1 (centres unmarked) [Example 60, 2-(5-(2-Hydroxyethoxy)-6-(4-(methylsulfinyl)phenyl)pyridin-2-yl)-7-methoxyquinazolin-4(3H)-one] | 
Active | Not Active | Active | Not Active | 167 to 170 °C | COc1cc(OC)c2c(=O)[nH]c(-c3ccc(OCC[N+]4([O-])CCCC4)c(-c4ccc(S(C)(=O)=O)cc4)n3)nc2c1 [Example 63, 1-(2-((6-(5,7-Dimethoxy-4-oxo-3,4-dihydroquinazolin-2-yl)-2-(4-(methylsulfonyl)phenyl)pyridin-3-yl)oxy)ethyl)pyrrolidine 1-oxide] | 
Active | Active | Active | Active | 222 to 223 °C | COc1cccc2nc(-c3ccc(OCCNC(C)C)c(-c4ccc(S(C)(=O)=O)cc4)n3)[nH]c(=O)c12 [Example 64, 2-(5-(2-(Isopropylamino)ethoxy)-6-(4-(methylsulfonyl)phenyl)pyridin-2-yl)-5-methoxyquinazolin-4(3H)-one] | 
